The molecules below were run against T1, BTK-WT (Homo sapiens, UniProt Q06187) (assay: Btk in vitro inhibitory activity (one of Method A TR-FRET, Method B electrophoretic mobility shift, Method C radiometric filter binding)). Details: E compounds, Table 17; read-out: IC50 BTK-WT.
T1 construct: purified from insect cells as a full-length construct containing an N-terminal 6X-His tag; His6 (N); made in house; host or cells: insect cells (baculovirus Sf21 in Method B)
Format: biochemical

T1 sequence (Q06187 whole entry): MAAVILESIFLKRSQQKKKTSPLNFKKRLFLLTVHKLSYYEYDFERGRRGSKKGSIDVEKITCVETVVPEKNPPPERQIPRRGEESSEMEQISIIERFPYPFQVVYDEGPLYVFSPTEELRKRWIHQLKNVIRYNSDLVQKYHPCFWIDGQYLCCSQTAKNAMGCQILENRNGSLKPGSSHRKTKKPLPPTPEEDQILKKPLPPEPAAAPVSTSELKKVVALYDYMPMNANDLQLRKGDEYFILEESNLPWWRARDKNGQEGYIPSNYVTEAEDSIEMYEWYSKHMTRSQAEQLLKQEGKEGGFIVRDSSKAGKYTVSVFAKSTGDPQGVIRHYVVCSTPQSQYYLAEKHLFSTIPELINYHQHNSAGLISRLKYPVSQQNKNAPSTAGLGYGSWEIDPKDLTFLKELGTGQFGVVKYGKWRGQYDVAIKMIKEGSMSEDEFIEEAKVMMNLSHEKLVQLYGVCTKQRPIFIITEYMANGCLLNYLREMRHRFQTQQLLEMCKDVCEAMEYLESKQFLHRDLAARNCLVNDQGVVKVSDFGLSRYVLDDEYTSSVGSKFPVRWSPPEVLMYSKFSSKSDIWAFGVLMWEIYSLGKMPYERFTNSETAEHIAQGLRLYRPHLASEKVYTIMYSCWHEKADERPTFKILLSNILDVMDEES

SMILES | IC50
C=CC(=O)N1CCC[C@@H](Nc2nnc(C(N)=O)c(Nc3ccc(C4(C)CCN(C5CC5)CC4)cc3)n2)[C@H]1C [Example E-127, 3-(((2R,3R)-1-acryloyl-2-methylpiperidin-3-yl)amino)-5-((4-(1-cyclopropyl-4-methylpiperidin-4-yl)phenyl)amino)-1,2,4-triazine-6-carboxamide] | ≤ 10 nM
C[C@@H]1[C@H](NC(=O)c2ccc(C(C)(C)O)cc2)CCCN1c1cnc(C(N)=O)c(Nc2ccc(C3(C)CCN(C4CC4)CC3)cc2)n1 [Example E-147, 3-((4-(1-cyclopropyl-4-methylpiperidin-4-yl)phenyl)amino)-5-((2R,3R)-3-(4-(2-hydroxypropan-2-yl)benzamido)-2-methylpiperidin-1-yl)pyrazine-2-carboxamide] | ≤ 10 nM
C=CC(=O)N[C@@H]1CCCN(c2nnc(C(N)=O)c(Nc3ccc(Cl)cc3)n2)[C@@H]1C [Example E-5, 3-((2R,3R)-3-acrylamido-2-methylpiperidin-1-yl)-5-((4-chlorophenyl)amino)-1,2,4-triazine-6-carboxamide] | ≤ 10 nM
C=CC(=O)N[C@@H]1CCCN(c2nnc(C(N)=O)c(Nc3ccc(C4(C)CCN(C5CC5)CC4)cc3)n2)[C@@H]1C [Example E-2, 3-((2R,3R)-3-acrylamido-2-methylpiperidin-1-yl)-5-((4-(1-cyclopropyl-4-methylpiperidin-4-yl)phenyl)amino)-1,2,4-triazine-6-carboxamide] | ≤ 10 nM

More lines, now with the values ahead:

IC50 | SMILES
≤ 10 nM | C=CC(=O)N1CCC[C@@H](N(C)c2cnc(C(N)=O)c(Nc3ccc(C(C)C)cc3)n2)C1 [Example E-102, (R)-5-((1-acryloylpiperidin-3-yl)(methyl)amino)-3-(4-isopropylphenylamino) pyrazine-2-carboxamide]
≤ 10 nM | C[C@@H]1[C@H](NC(=O)c2ccc(C3CC3)cc2)CCCN1c1cnc(C(N)=O)c(Nc2ccc(OC3CCN(C)C3)cc2)n1 (stereo partly drawn) [Example E-136, 5-((2R,3R)-3-(4-cyclopropylbenzamido)-2-methylpiperidin-1-yl)-3-((4-((1-methylpyrrolidin-3-yl)oxy)phenyl)amino) pyrazine-2-carboxamide]
≤ 10 nM | C[C@@H]1[C@H](NC(=O)c2ccc(-c3ncco3)cc2)CCCN1c1cnc(C(N)=O)c(Nc2cnn(C)c2)n1 [Example E-154, 3-((1-methyl-1H-pyrazol-4-yl)amino)-5-((2R,3R)-2-methyl-3-(4-(oxazol-2-yl)benzamido)piperidin-1-yl)pyrazine-2-carboxamide]
≤ 10 nM | C[C@@H]1[C@H](NC(=O)c2ccc(C3CC3)cc2)CCCN1c1cnc(C(N)=O)c(Nc2ccc(N3CCN(C4COC4)C[C@@H]3C)cc2)n1 [Example E-142, 5-((2R,3R)-3-(4-cyclopropylbenzamido)-2-methylpiperidin-1-yl)-3-((4-((S)-2-methyl-4-(oxetan-3-yl)piperazin-1-yl)phenyl)amino)pyrazine-2-carboxamide]
≤ 10 nM | C[C@@H]1[C@H](NC(=O)c2ccc3c(c2)C(C)(C)OC3)CCCN1c1cnc(C(N)=O)c(Nc2cnn(C)c2)n1 [Example E-153, 5-((2R,3R)-3-(3,3-dimethyl-1,3-dihydroisobenzofuran-5-carboxamido)-2-methylpiperidin-1-yl)-3-((1-methyl-1H-pyrazol-4-yl)amino)pyrazine-2-carboxamide]
≤ 10 nM | C=CC(=O)N1CC[C@@H](N(C)c2cnc(C(N)=O)c(Nc3ccc(C4CCN(C5CC5)CC4)cc3)n2)C1 [Example E-121, (R)-5-((1-acryloylpyrrolidin-3-yl)(methyl)amino)-3-(4-(1-cyclopropylpiperidin-4-yl)phenylamino)pyrazine-2-carboxamide]
≤ 10 nM | C=CC(=O)N1CC[C@@H](N(C)c2cnc(C(N)=O)c(Nc3cnn(CCOC)c3)n2)C1 [Example E-110, (R)-5-((1-acryloylpyrrolidin-3-yl)(methyl)amino)-3-(1-(2-methoxyethyl)-1H-pyrazol-4-ylamino)pyrazine-2-carboxamide]
100 to 1000 nM | C[C@@H]1CCN(c2cnc(C(N)=O)c(Nc3cnn(C)c3)n2)C[C@@H]1NC(=O)c1ccc(C2CC2)cc1 [Example E-140, 5-((3R,4R)-3-(4-cyclopropylbenzamido)-4-methylpiperidin-1-yl)-3-((1-methyl-1H-pyrazol-4-yl)amino)pyrazine-2-carboxamide]

Same assay, conditions: Table 13, A compounds; read-out: IC50 BTK-WT

SMILES | IC50
CN1CCC(n2cc(Nc3nc(N4CCC[C@@H](n5ccc6cc(C7CC7)ccc6c5=O)C4)cnc3C(N)=O)cn2)CC1 [Example A-178, 5-[(3R)-3-(6-cyclopropyl-1-oxo-1,2-dihydroisoquinolin-2-yl)piperidin-1-yl]-3-{[1-(1-methylpiperidin-4-yl)-1H-pyrazol-4-yl]amino}pyrazine-2-carboxamide] | ≤ 10 nM
C[C@@H]1[C@H](NC(=O)c2ccc(C3CC3)cc2F)CCCN1c1cnc(C(N)=O)c(Nc2ccc(N3CCN(C)CC3)c(F)c2)n1 [Example A-171, 5-[(2R,3R)-3-(4-cyclopropyl-2-fluorobenzamido)-2-methylpiperidin-1-yl]-3-{[3-fluoro-4-(4-methylpiperazin-1-yl)phenyl]amino}pyrazine-2-carboxamide] | ≤ 10 nM
C[C@@H]1[C@H](NC(=O)c2ccc(C3CC3)cc2Cl)CCCN1c1cnc(C(N)=O)c(Nc2ccc(N3CCN(C)CC3)cc2)n1 [Example A-180, 5-[(2R,3R)-3-(2-chloro-4-cyclopropylbenzamido)-2-methylpiperidin-1-yl]-3-{[4-(4-methylpiperazin-1-yl)phenyl]amino}pyrazine-2-carboxamide] | ≤ 10 nM
C[C@@H]1[C@H](NC(=O)c2ccc(C3CC3)cc2F)CCCN1c1cnc(C(N)=O)c(Nc2ccc(C(=O)N3CCN(C)CC3)cc2)n1 [Example A-122, 5-[(2R,3R)-3-(4-cyclopropyl-2-fluorobenzamido)-2-methylpiperidin-1-yl]-3-{[4-(4-methylpiperazine-1-carbonyl)phenyl]amino}pyr-azine-2-carboxamide] | ≤ 10 nM
C[C@@H]1[C@H](NC(=O)c2ccc(C3CC3)cc2F)CCCN1c1cnc(C(N)=O)c(Nc2ccc(N3CCN(C4CCCC4)CC3)cc2)n1 [Example A-125, 3-{[4-(4-cyclopentylpiperazin-1-yl)phenyl]amino}-5-[(2R,3R)-3-(4-cyclopropyl-2-fluorobenzamido)-2-methylpiperidin-1-yl]pyrazine-2-carboxamide] | ≤ 10 nM
COCCn1cc(Nc2nc(N3CCC[C@@H](NC(=O)c4ccc(C5CC5)cc4)[C@H]3C)cnc2C(N)=O)cn1 [Example A-186, 5-((2R,3R)-3-(4-cyclopropylbenzamido)-2-methylpiperidin-1-yl)-3-(1-(2-methoxylethyl)-1H-pyrazol-4-ylamino)pyrazine-2-carboxamide] | ≤ 10 nM
Cn1cc(Nc2nc(N3C[C@H](NC(=O)c4ccc(C5CC5)cc4)CC(F)(F)C3)cnc2C(N)=O)cn1 [Example A-188, (R)-5-(5-(4-cyclopropylbenzamido)-3,3-difluoropiperidin-1-yl)-3-(1-methyl-1H-pyrazol-4-ylamino)pyrazine-2-carboxamide] | ≤ 10 nM
COCCN(C)Cc1cc(Nc2nc(N3CCC[C@@H](NC(=O)c4ccc(C5CC5)cc4)[C@H]3C)cnc2C(N)=O)sn1 [Example A-185, 5-((2R,3R)-3-(4-cyclopropylbenzamido)-2-methylpiperidin-1-yl)-3-(3-(((2-methoxyethyl)(meth-yl)amino)meth-yl)isothiazol-5-ylamino)pyr-azine-2-carboxamide] | ≤ 10 nM
C[C@@H]1[C@H](NC(=O)c2ccc(C3CC3)cc2F)CCCN1c1cnc(C(N)=O)c(Nc2ccc(N3CCN(C)C[C@@H]3C)cc2)n1 [Example A-176, 5-[(2R,3R)-3-(4-cyclopropyl-2-fluorobenzamido)-2-methylpiperidin-1-yl]-3-({4-[(2S)-2,4-dimethylpiperazin-1-yl]phenyl}amino)pyrazine-2-carboxamide] | ≤ 10 nM
CN1CCN(Cc2ccc(Nc3nc(N4CCC[C@@H](n5ccc6cc(C7CC7)ccc6c5=O)C4)cnc3C(N)=O)cc2)CC1 [Example A-111, 5-[(3R)-3-(6-cyclopropyl-1-oxo-1,2-dihydroisoquinolin-2-yl)piperidin-1-yl]-3-({4-[(4-methylpiperazin-1-yl)meth-yl]phenyl}amino)pyrazine-2-carboxamide] | ≤ 10 nM
CN1CCN(C(=O)c2ccc(Nc3nc(N4CCC[C@@H](n5ccc6cc(C7CC7)ccc6c5=O)C4)cnc3C(N)=O)cc2)CC1 [Example A-115, 5-[(3R)-3-(6-cyclo-propyl-1-oxo-1,2-dihydroisoquinolin-2-yl)piperidin-1-yl]-3-{[4-(4-methylpiperazine-1-carbonyl)phenyl]amino}pyr-azine-2-carboxamide] | ≤ 10 nM
C[C@@H]1[C@H](NC(=O)c2ccc(C3CC3)cc2F)CCCN1c1cnc(C(N)=O)c(Nc2ccc(S(=O)(=O)N3CCCC3)cc2)n1 [Example A-175, 5-[(2R,3R)-3-(4-cyclopropyl-2-fluorobenzamido)-2-methylpiperidin-1-yl]-3-{[4-(pyrrolidine-1-sulfonyl)phenyl]amino}pyr-azine-2-carboxamide] | ≤ 10 nM
C[C@@H]1[C@H](NC(=O)c2ccc(C3CC3)cc2F)CCCN1c1cnc(C(N)=O)c(Nc2ccc(S(=O)(=O)N3CCN(C)CC3)cc2)n1 [Example A-156, 5-[(2R,3R)-3-(4-cyclopropyl-2-fluorobenzamido)-2-methylpiperidin-1-yl]-3-({4-[(4-methylpiperazin-1-yl)sulfonyl]phenyl}amino)pyr-azine-2-carboxamide] | ≤ 10 nM
C[C@@H]1[C@H](NC(=O)c2ccc(C3CC3)cc2)CCCN1c1cnc(C(N)=O)c(Nc2cnn(C3CCN(C)CC3)c2)n1 [Example A-173] | ≤ 10 nM
C[C@@H]1[C@H](NC(=O)c2ccc(C(C)(C)C)cc2)CCCN1c1cnc(C(N)=O)c(Nc2ccc(N3CCN(C)CC3)cc2)n1 [Example A-184, 5-[(2R,3R)-3-(4-tert-butylbenzamido)-2-methylpiperidin-1-yl]-3-{[4-(4-methylpiperazin-1-yl)phenyl]amino}pyrazine-2-carboxamide] | ≤ 10 nM

Source: US20210070748A1, “INHIBITORS OF BRUTONS TYROSINE KINASE” (Pharmacyclics LLC, priority 2015, published 2021)
